± gives the standard deviation of the averaged measurements.
Legend:
Assay in all cases: level (log10 ratio to DMSO vehicle control); higher = higher biomarker level / cell amount than vehicle control
[1] = compound: CCOC(=O)CC(=O)C(F)(F)C(F)(F)F [Ethyl pentafluoropropionyl acetate] (in DMSO)
Method: (§1)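 BioMAP Diversity Plus panel of 12 human primary cell co-culture systems (3C, 4H, LPS, SAg, BT, BF4T, BE3C, CASM3C, HDF3CGF, KF3CT, MyoF, Mphg). Compounds were added 1 h before stimulation and left for 24 h (MyoF 48 h; BT 72 h for soluble read-outs or 6 d for IgG). Biomarkers were read by ELISA, cytotoxicity by SRB, PBMC viability and proliferation by Alamar Blue. Each well value was divided by the mean of 8 DMSO control wells on the same plate and log10 transformed; duplicate blinded samples were tested at 4 concentrations.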

[2] = compound: C[C@@H]1C[C@H]2[C@@H]3CCC4=CC(=O)C=C[C@]4(C)[C@@]3(F)[C@@H](O)C[C@]2(C)[C@@]1(O)C(=O)COP(=O)(O)O [Dexamethasone sodium phosphate] (in DMSO)
Method: as §1

[3] = compound: O=C(O)C(F)(F)C(F)(F)C(F)(F)C(F)(F)C(=O)O [Octafluoroadipic acid] (in DMSO)
Method: as §1

[4] = compound: O=S(=O)(O)C(F)(F)C(F)(F)OC(F)(F)C(F)(F)F [Perfluoro(2-ethoxyethane)sulfonic acid] (in DMSO)
Method: as §1

[5] = compound: OCC(F)(F)C(F)(F)C(F)(F)C(F)(F)C(F)(F)C(F)(F)CO [1H,1H,8H,8H-Perfluorooctane-1,8-diol] (in DMSO)
Method: as §1

[6] = compound: OCCC(F)(F)C(F)(F)C(F)(F)C(F)(F)F [4:2 Fluorotelomer alcohol] (in DMSO)
Method: as §1

Test System | level (log10) ([1]; 6700 nM) | level (log10) ([1]; 20000 nM) | level (log10) ([1]; 60000 nM) | level (log10) ([2]; 1500 nM) | level (log10) ([2]; 4400 nM) | level (log10) ([2]; 13000 nM) | level (log10) ([2]; 40000 nM) | level (log10) ([3]; 6700 nM) | level (log10) ([3]; 20000 nM) | level (log10) ([3]; 60000 nM) | level (log10) ([4]; 6700 nM) | level (log10) ([4]; 20000 nM) | level (log10) ([4]; 60000 nM) | level (log10) ([5]; 6700 nM) | level (log10) ([5]; 20000 nM) | level (log10) ([5]; 60000 nM) | level (log10) ([6]; 6700 nM) | level (log10) ([6]; 20000 nM) | level (log10) ([6]; 60000 nM)
CASM3C:LDLR | -0.0125 ± 0.019 | -0.002 ± 0.0085 | 0.0035 ± 0.013 | 0.05 ± 0.0057 | 0.03 ± 0.033 | 0.0065 ± 0.03 | 0.031 ± 0.05 | -0.0215 ± 0.023 | -0.008 ± 0.018 | 0.029 ± 0.047 | -0.006 ± 0.0014 | -0.0085 ± 0.00071 | 0.0005 ± 0.023 | 0.0045 ± 0.005 | -0.0015 ± 0.0035 | 0.0075 ± 0.032 | -0.0485 ± 0.026 | -0.034 ± 0.011 | -0.0455 ± 0.037
MyoF:MMP-1 | -0.0245 ± 0.03 | -0.0125 ± 0.011 | 0.034 ± 0.058 | 0.004 ± 0.031 | 0.005 ± 0.0014 | -0.0315 ± 0.013 | -0.0125 ± 0.005 | -0.013 ± 0.025 | -0.0175 ± 0.0035 | 0.0125 ± 0.03 | -0.005 ± 0.014 | -0.0365 ± 0.00071 | 0.0155 ± 0.037 | -0.02 ± 0.031 | -0.0145 ± 0.022 | 0.028 ± 0.12 | -0.0345 ± 0.04 | -0.026 ± 0.027 | 0.0215 ± 0.0064
BE3C:Keratin 8/18 | 0.0105 ± 0.022 | 0.0095 ± 0.033 | 0.001 ± 0.0085 | 0.0045 ± 0.012 | 0.0035 ± 0.00071 | -0.025 ± 0.0042 | -0.0165 ± 0.0064 | -0.0095 ± 0.0078 | -0.0105 ± 0.025 | 0.0095 ± 0.0021 | -0.007 ± 0.013 | -0.0105 ± 0.013 | -0.01 ± 0.011 | -0.0155 ± 0.022 | -0.017 ± 0.0014 | -0.0375 ± 0.0035 | -0.034 ± 0.057 | -0.02 ± 0.02 | 0.0085 ± 0.026
lMphg:CXCL8/IL-8 | -0.0295 ± 0.023 | -0.01 ± 0.0042 | 0.0095 ± 0.049 | -0.108 ± 0.0064 | -0.138 ± 0.015 | -0.136 ± 0.011 | -0.129 ± 0.034 | 0.009 ± 0.0099 | -0.0015 ± 0.028 | 0.0495 ± 0.091 | 0.0055 ± 0.005 | 0.034 ± 0.018 | 0.118 ± 0.016 | -0.0085 ± 0.074 | -0.03 ± 0.028 | 0.011 ± 0.034 | 0.003 | 0.0065 ± 0.033 | 0.0275 ± 0.035
MyoF:PAI-I | -0.0005 ± 0.021 | 0.006 ± 0.017 | 0.0055 ± 0.015 | 0.0185 ± 0.0078 | 0.0085 ± 0.015 | 0.005 ± 0.0028 | 0.0085 ± 0.012 | -0.012 ± 0.0099 | -0.01 ± 0.017 | 0.001 ± 0.0085 | -0.0005 ± 0.00071 | -0.009 ± 0.013 | 0.0015 ± 0.011 | -0.0015 ± 0.0064 | -0.004 ± 0.0028 | 0.0005 ± 0.011 | -0.0185 ± 0.018 | -0.0215 ± 0.019 | -0.0155 ± 0.00071
lMphg:M-CSF | -0.01 ± 0.0099 | -0.001 ± 0.028 | 0.005 ± 0.0014 | -0.022 ± 0.034 | -0.031 ± 0.058 | -0.0455 ± 0.028 | -0.0495 ± 0.0021 | -0.012 ± 0.0071 | -0.0255 ± 0.0035 | -0.006 ± 0.017 | 0.0025 ± 0.0092 | -0.011 ± 0.0028 | -0.011 ± 0.0071 | -0.015 ± 0.013 | -0.013 ± 0.016 | 0.013 ± 0.067 | -0.021 ± 0.017 | -0.003 ± 0.018 | -0.0025 ± 0.039
BE3C:PAI-I | 0.008 ± 0.0014 | -0.006 ± 0.014 | 0.0045 ± 0.018 | 0.0905 ± 0.025 | 0.109 ± 0.016 | 0.098 ± 0.028 | 0.0635 ± 0.054 | -0.0025 ± 0.005 | 0.0015 ± 0.0035 | 0.0025 ± 0.0035 | -0.011 ± 0.023 | 0.0015 ± 0.021 | 0.032 ± 0.014 | 0.025 ± 0.024 | 0.031 ± 0.0099 | 0.0325 ± 0.011 | -0.0355 ± 0.023 | -0.03 ± 0.045 | 0.0365 ± 0.016
MyoF:TIMP-1 | -0.005 ± 0.023 | -0.012 ± 0.023 | 0.0125 ± 0.022 | -0.0965 ± 0.047 | -0.0915 ± 0.067 | -0.135 ± 0.11 | -0.12 ± 0.11 | -0.0155 ± 0.026 | -0.02 ± 0.025 | -0.0485 ± 0.019 | 0.003 ± 0.0014 | 0.036 ± 0.028 | 0.0775 ± 0.025 | -0.0125 ± 0.042 | 0.0285 ± 0.042 | 0.0735 ± 0.035 | -0.001 ± 0.04 | 0.013 ± 0.075 | 0.009 ± 0.059
